Here are results for two molecules from paper PMC8145144, “Transport of Dietary Anti-Inflammatory Peptide, γ-Glutamyl Valine (γ-EV), across the Intestinal Caco-2 Monolayer” (Nutrients, 2021).

In series [1] the test system is Caco-2 cells. As to conditions: cytochalasin D 0.5 μg/mL, across Caco-2 cells; cited from earlier work.
For series [2], the system named is Caco-2 monolayer.
The nature of series [3]: in vitro. As to conditions: human, Caco-2.
Series [4] concerns Caco-2 monolayer. The arrangement: method as in PMID 32786865. The note with it: 1 mM γ-EV across Caco-2 cells, previous study; cited from earlier work.
Series [5] is described as follows: MTT cell viability assay. Type of series: cell-based, human. The note with it: human, Caco-2 cells (differentiated, grown for 15 days), 10 mM, 2 h, read-out: survival rate (cell viability). As for the experimental part:
(§1) A clear-bottom 96-well black plate (VWR, #29444-008) was seeded with Caco-2 cells (40,000 cells/well) and grown for 15 days in EMEM media (20% FBS and 1% Pen-Strep) to achieve differentiation of the cells. The MTT assay kit (Abcam, #ab211091) was used to test the cell-viability assay following the manufacturer’s guidelines, as described in the earlier study. For the time-course study, a concentration of 1 mM γ-EV was used for determining the cell toxicity, by incubating it on the Caco-2 cells for 2, 4, and 6 h. For the dose study, the cell toxicity of γ-EV was tested for different doses, such as 2.5, 3, 4, 5, and 10 mM, after incubating the peptide on the cells for 2 h. After the treatment period, the cell media was discarded and replaced with a mixture of 50 μL of the MTT reagent and 50 μL of serum-free EMEM media. After the incubation period of 3 h at 37 °C, the MTT-supplemented media was replaced with 150 μL of MTT solvent. Following that, the plates were incubated on an orbital shaker (200 rpm, 37 °C) (MaxQ 4450, Thermo Fischer Scientific, Waltham, MA, USA) for 15 min, in dark, after which the absorbance of the plate was read at 590 nm (Synergy H1 microplate reader, BioTek, Winooski, VT, USA). The background control readings were subtracted from each of the wells and the cell-viability percentage (%) was calculated using the formula cell viability % = (sample/control) × 100, where the control was cells with no γ-EV treatment, and the sample was the γ-EV treated cells.
Background: Formazan colour is commonly taken as a measure of viable cells.

The subject of series [6] is Caco-2 cells. As to the kind of experiment: MTT cell viability assay. It counts as cell-based, human. As for the experimental part:
as §1

A short description of series [7]: in vitro. It counts as in vitro ADME, human. The note with it: human. How it is done: (§2) The route of transport of γ-EV across Caco-2 monolayer cells was determined using 1 mM γ-EV transported for 2 h, following the same protocol as mentioned in Section 2.4. However, in this case, four transport inhibitors were used prior to γ-EV addition in the apical layer, to elucidate the mechanism of transport. Theaflavin 3′-gallate (TF3′G) (20 μM), a cell tight-junction enhancer, was added to the EMEM growth medium 24 h before the experiment. Wortmannin (a transcytosis inhibitor, 1 μM), cytochalasin D (a cell tight-junction disruptor, 0.5 μg/mL), and Gly-Sar (PepT1 transporter inhibitor, 25 mM) were added 30 min before γ-EV addition in the HBSS buffer (pH 6.5). After the treatment was over, the apical and basal layers were collected, and the concentration of γ-EV was analyzed and represented via Papp. For this study, some of the replicate inserts were used for harvesting the Caco-2 cells for analyzing the tight-junction proteins via Western immunoblotting, while some of the inserts were used for visualizing the tight-junction proteins through immunofluorescence.
(§3) LC-MS/MS was used to detect the γ-EV content after the transport study. The instrument used was the Shimadzu LC system (Nexera X2, Columbia, MD, USA), interfaced with a Sciex QTRAP 6500+ mass spectrometer (Redwood City, CA, USA), equipped with a TurboIonSpray (TIS) electrospray ion source (ESI). […] The mobile phases and gradient used were as previously described. Analyst software (version 1.6.3, Redwood City, CA, USA) was used for the sample acquisition control and data analysis. The manufacturer’s recommendations were used for tuning and calibration of the SCIEX QTRAP 6500+ mass spectrometer. The parameters for the ESI operation were as follows: 5500 V ion spray voltage; 500 °C source temperature; ion source gas 1, gas 2, and curtain gas, as 50, 50, and 25, respectively; and collision gas, high. The multiple reaction monitoring (MRM) transitions and the compound settings were previously optimized and described in [11]. An external standard curve, containing different concentrations of the peptide (γ-EV diluted in water), was prepared for the absolute quantification of the peptide. The standards were run alongside the samples (γ-EV in HBSS buffer) in triplicate. The linear range of the standard curve was from 0.016 to 10 μM, with a linear regression slope R^2 of 1 with a CV of <8% for all the dilution points.

The test system of series [8] is PepT1. As to the kind of experiment: in vitro. Type of series: in vitro ADME, human. The note with it: human, Caco-2, Papp after Gly-Sar pretreatment. As for the experimental part: as §2, §3
Series [9] deals with Caco-2 monolayer cells. The series is described as follows: in vitro. Type of series: in vitro ADME, human. The note with it: Caco-2. As for the experimental part:
as §2, §3

“Also recorded” adds a separate entry of the source.

Regarding HLPLP, the “increase of peptide transport by cytochalasin D” value in series [1] is 65%.
The term Papp A→B denotes how fast a substance crosses the layer from the apical side. The low end stands for slow passage, the high end for fast passage. What is called Papp is a coefficient for how fast a substance crosses the barrier. The viability is a read-out of living cells in per cent, often relative to untreated cells. Turning to `CC(C)[C@H](NC(=O)CC[C@H](N)C(=O)O)C(=O)O` [γ-EV, γ-glutamyl valine], in series [2], the Papp range is 1.5–2.5 × 10^−6 and the “change in rate of transport (Papp) vs 1 mM dose” value was “did not have a significant change”. In series [3], this molecule registered a Papp A→B at 2 h, 5 mM of 2.5 ×10⁻⁶ cm/s; a Papp A→B at 4 h, 1 mM of 0.678 ×10⁻⁶ cm/s; an apical-to-basolateral permeability (Papp A→B) at 6 h, 1 mM of 0.746 ×10⁻⁶ cm/s; a Papp at 2 h, 1 mM of 1.56 ×10⁻⁶ cm/s. For the same molecule, the Papp at 2 h, 5 mM in [3] came to 2.49 ×10⁻⁶ cm/s. For the same molecule, in series [4], the “apparent permeability coefficient (Papp)” value is 1.56 ± 0.7 ×10⁻⁶ cm/s. For the same molecule, the viability at 2 h, 10 mM in series [5] is 21%. In addition, the cytotoxicity result in series [6] (1 mM, exposure 4 and 6 h) is reported as “not toxic; also recorded: No cytotoxicity”. For the same molecule, the cytotoxicity result in series [6] (10 mM, 2 h) was “cytotoxic”. In addition, in series [6] (concentrations up to 5 mM, 2 h), the cytotoxicity entry is “nontoxic; also recorded: not toxic; also recorded: not cytotoxic”. The Papp at 2 h, 1 mM in [7] (Caco-2, Papp after TF3′G pretreatment) amounted to 0.875 ×10⁻⁶ cm/s. Further, the Papp at 2 h, 1 mM in [7] (Caco-2, Papp after cytochalasin D pretreatment) is 4.36 ×10⁻⁶ cm/s. Also, the Papp at 2 h, 1 mM in [8] was found to be 0.798 ×10⁻⁶ cm/s. In [9], the “decrease of Papp by Gly-Sar vs control” value amounted to 48%.
